What was measured:
fecal bile acids = experiment: Fecal bile acid measurement, rats dosed 4 days; type: in vivo, Wistar rat; conditions: for Increase over Vehicle (Delta): fecal bile acids, rat, 4 days
Method: Male Wistar rats (Charles River Laboratories) weighing 275-300 grams were single-housed in a constant temperature environment with alternating 12 hour light and dark cycles. All animals had continuous access to a commercial rodent diet as well as water. In each study rats were randomly assigned to either vehicle or treatment groups and were administered intragastric doses of drug dissolved in aqueous 0.2% (v/v) Tween 80 (2 ml/kg body weight). The animals were dosed in the morning between 9:00 and 10:00 a.m. for four consecutive days. Fecal samples were collected on papers underneath each cage during the final 48 hour period of the study and analyzed for bile acid content.
Cage papers containing the 48-hour fecal samples were collected at approximately 9:00 a.m. on the final day and used to determine the individual fecal bile acid (FBA) concentration for each animal. Fecal samples from each rat were weighed and a weight of distilled water (1 gram/mL) equal to 2 times the total weight of feces was added to each sample container (e.g., 20 mL water to 10 grams feces). The containers were stored overnight at 4° C. Each sample was homogenized for approximately 45 seconds using a small food processor to yield a homogeneous slurry. 1.4 grams of the homogenate was weighed into 16×100 polypropylene tubes and 2.6 mL of tertiary butanol/distilled water (2:0.6) added to yield a final concentration of 50% (v/v) tertiary butanol in water. The sample was extracted by incubation for 45 minutes in a 37° C. water bath, and subjected to centrifugation at 3000×g for 13 minutes and the supernatant extract collected.
The concentration of bile acids […] in the extract was determined using a 96-well enzymatic assay system (4,5). 20 μl aliquots of each butanol extract was added to two sets of triplicate wells in a 96-well assay plate (one set on each half of the plate). Standardized sodium taurocholate solutions (0.2 and 0.9 mM) and standardized fecal extract solutions (previously made from pooled fecal samples collected from control and drug-treated rats) were analyzed in parallel to provide a bile acid standard curve and internal quality control samples, respectively. 20 μl aliquots of the sodium taurocholate standard were serially diluted to generate a standard curve and were added to two separate sets of triplicate wells.
To each well, 230 μl of reaction mixture containing 1M hydrazine hydrate, 0.1 M pyrophosphate and 0.46 mg/ml NAD was added. […] Following a 60 minute incubation at room temperature, the optical density at 340 nm was measured and the mean of each set of triplicate wells was calculated. […] A mean value for the increase in FBA for each group was determined and compared to the vehicle group used, to determine compound dosing efficacy. […]

serum bile acids = experiment: Inhibition of the postprandial rise in SBA (AUC 0-240 min) in dogs, LUM001 compared to cholestyramine; type: in vivo, dog
Method: LUM001 was dissolved in 0.2% Tween 80 at concentrations that required the administration of 0.2 ml dosing solution/kg of body weight at each dose tested. Cholestyramine was suspended in water at concentrations that required the administration of 2.5 ml/kg (500 mg/kg) and 1 ml/kg (200 mg/kg). The appropriate volume of solution formulation for each animal was placed into a gelatin capsule, Torpac Inc., size 13, Batch 594, East Hanover, N.J. and administered per os. Test compounds were administered as single oral doses to groups of dogs, 3 to 9 dogs per group at varying dosages. LUM001 was given at 0, 0.02, 0.05, 0.2, 0.6, 2, 5 or 15 mg/kg. Cholestyramine was administered at 200 or 500 mg/kg. […] No dog received any one compound dosage more than once. SBA was measured by an enzymatic assay. SBA values are expressed as μg of total bile acids/ml of serum.

Compound: CCCCC1(CCCC)CS(=O)(=O)c2ccc(N(C)C)cc2[C@@H](c2ccc(OCc3ccc(C[N+]45CCN(CC4)CC5)cc3)cc2)[C@H]1O [LUM001]
- Increase over Vehicle (Delta) (fecal bile acids; Q.D. 0.002 mg/kg/day): 4.1
- Increase over Vehicle (Delta) (fecal bile acids; Q.D. 0.008 mg/kg/day): 5.9
- Increase over Vehicle (Delta) (fecal bile acids; Q.D. 0.4 mg/kg/day): 47.0
- effect on fecal bile acids (fecal bile acids; rats, all doses): significantly increased
- inhibition of postprandial serum bile acids AUC compared to cholestyramine (serum bile acids; cholestyramine 200 or 500 mg/kg, AUC 0-240 min): superior inhibition
- effect on serum bile acids (serum bile acids; single oral doses 0.02-15 mg/kg): significantly decreased

Source: US20140275090A1, “BILE ACID RECYCLING INHIBITORS FOR TREATMENT OF PRIMARY SCLEROSING CHOLANGITIS AND INFLAMMATORY BOWEL DISEASE” (Lumena Pharmaceuticals, Inc., priority 2013, published 2014)
